Results reported in paper PMC6480966, “Synthesis, In Silico, and In Vitro Evaluation of Anti-Leishmanial Activity of Oxadiazoles and Indolizine Containing Compounds Flagged against Anti-Targets” (Molecules, 2019).
Read-outs that look alike come from different tables or passages of the source.

How the values were obtained:
[1] = Cytotoxicity test on macrophages (resazurin); format: cell-based; conditions: mouse, RAW 264.7 macrophages, 48 h incubation
Protocol: (§1) RAW 264.7 macrophages were grown with 5% CO2 in DMEM complete medium containing Dulbecco’s Modified Eagle’s Medium (DMEM) with 100 U/mL penicillin-streptomycin, and 10% HIFBS at 37 °C.
(§2) RAW 264.7 macrophages were used for cytotoxicity testing. Cells were plated in 96-well microplates at a density of 2 × 10^4 cells per well. Twenty-four hours of incubation with 5% CO2 at 37 °C followed, and then the medium was removed and to each well, 100 μL of DMEM complete medium containing two-fold serial dilutions of the compounds were added. This was followed by 48 h of incubation with 5% CO2 at 37 °C, after which 10 μL of resazurin (450 μM) was added to each well, and further incubated with 5% CO2, in the dark for 4 h at 37 °C. Cell viability was then monitored as above. Compound cytotoxicity was expressed as CC50 (Cytotoxic Concentration 50%: concentration inhibiting the macrophages growth by 50%).

[2] = test system: Leishmania donovani LV9 axenic amastigotes; test: In vitro anti-leishmanial testing on axenic amastigotes (resazurin); format: cell-based; conditions: then resazurin 24 h
Protocol: (§3) Leishmania donovani promastigotes (MHOM/ET/67/HU3/LV9) were cultured with 5% CO2 in M199 complete medium containing M199 medium supplemented with 100 μM adenosine, 0.5 mg/L hemin, 40 mM Hepes pH 7.4 and 10% heat inactivated fetal bovine serum (HIFBS) in the dark at 26 °C. Late log promastigotes diluted at 1 × 10^6/mL in M199 complete medium acidified at pH 5.5 and cultured at 37 °C with 5% CO2 provided the cultures of axenic amastigotes of L. donovani.
Previously described protocols were adapted for evaluation of compounds on L. donovani. For axenic amastigotes, two-fold serial dilutions of the compounds were done in 96-well microplates with 100 μL of complete medium (see above). Axenic amastigotes were then added to each well at a density of […] in a 200 μL final volume. After 72 h of incubation with 5% CO2 at 37 °C, 20 μL of resazurin (450 μM) was added to each well and further incubated with 5% CO2 at 37 °C for 24 h in the dark. Resazurin is reduced to resorufin in living cells and can be then monitored by measuring OD570nm (resorufin) and OD600nm (resazurin; Lab systems Multiskan MS). Compound activity was expressed as IC50 (µM). The drug used for reference was Amphotericin B (AmB).

[3] = test system: Leishmania donovani LV9 intramacrophage amastigotes; test: In vitro anti-leishmanial testing on intramacrophage amastigotes (RAW 264.7, Sybr Green I); format: cell-based; conditions: for SI = CC50/IC50 Intramacro. Amas.: CC50 RAW 264.7 / IC50 intramacrophage amastigotes; for IC50: Leishmania donovani, RAW264.7, RAW 264.7 macrophages, 48 h treatment
Protocol: as §3, §1
For intramacrophage amastigote testing, RAW 264.7 macrophages were incubated with 5% CO2 at 37 °C for 24 h after being plated in 96-well microplates at a density of 2 × 10^4 cells per well. Axenic amastigotes were differentiated as described above, centrifuged at 2000 g for 10 min, re-suspended in DMEM complete medium, and added to each well to reach a 16:1 parasite to macrophage ratio. 24 h of infection with 5% CO2 at 37 °C proceeded, and extracellular parasites were removed. This was followed by addition to each well of DMEM complete medium (100 μL) containing two-fold serial dilutions of the compounds from a maximal concentration of 100 μM. The medium was removed following treatment of 48 h and replaced by Direct PCR Lysis Reagent (100 μL; Euromedex) before 3 freeze-thaw cycles at room temperature, addition of 50 μg/mL proteinase K, and a final incubation at 55 °C overnight to allow cell lysis. 10 μL of each cell extract was then added to 40 μL of Direct PCR Lysis reagent containing Sybr Green I (0.05%; Invitrogen). Mastercycler® realplex (Eppendorf) was used to monitor DNA fluorescence. Compound activity was expressed as IC50 (µM). The drug used for reference was Amphotericin B (AmB).

[4] = test system: Leishmania donovani LV9 axenic amastigotes; test: In vitro anti-leishmanial testing on axenic amastigotes (resazurin); format: cell-based; conditions: against Leishmania axenic amastigotes (as worded)
[5] = test system: RAW 264.7 macrophages; test: Cytotoxicity test on macrophages (resazurin); format: cell-based; conditions: as defined
Protocol: as §1, §2

[6] = test system: Leishmania; design: method as in PMID 18353643; conditions: read-out: IC50 of reference drug miltefosine; cited from earlier work
[7] = Table 3, read-out: Leishmania donovani LV9 Intramacrophage Amastigotes IC50 ± SD
[8] = Table 2, read-out: Toxicity on RAW 264.7 Macrophages CC50 ± SD
[9] = Table 2, 72 h incubation, read-out: Leishmania donovani LV9 axenic Amastigotes Forms IC50 ± SD
[10] = Table 2, read-out: Leishmania donovani Intramacrophage Amastigotes Forms IC50 ± SD

| SMILES | IC50 ([2]; Table 3, 72 h incubation, read-out: Leishmania donovani LV9 Axenic Amastigotes IC50 ± SD) | IC50 [3, 7] | IC50 [2, 9] | melting point | IC50 [3, 10] | CC50 at 48 h ([1]; Table 3, read-out: Cytotoxicity on RAW 264.7 Macrophages CC50 ± SD) | SI = CC50/IC50 Intramacro. Amas. [3] | CC50 at 48 h [1, 8] | selectivity index (SI) [4] | selectivity index (SI, CC50 for macrophage/IC50 for promastigotes) [5] | IC50 [6] |
| --- | --- | --- | --- | --- | --- | --- | --- | --- | --- | --- | --- |
| C[C@@H]1[C@H](O)[C@@H](C)/C=C/C=C/C=C/C=C/C=C/C=C/C=C/[C@H](O[C@@H]2O[C@H](C)[C@@H](O)[C@H](N)[C@@H]2O)C[C@@H]2O[C@](O)(C[C@@H](O)C[C@@H](O)[C@H](O)CC[C@@H](O)C[C@@H](O)CC(=O)O[C@H]1C)C[C@H](O)[C@H]2C(=O)O [AmB, Amphotericin B, reference compound] | 0.2 ± 0.08 µM | 0.11 ± 0.09 µM |  |  |  | 5.36 ± 0.52 µM | 48.7 |  |  |  |  |
| O=C(NN=Cc1ccc(Br)s1)c1ccco1 [Compound 3, N’-[(5-Bromo-2-thiophenyl)methylene]furan-2-carbohydrazide] |  |  | > 100 µM | 201 to 202 °C | > 100 µM |  |  | > 100 µM |  |  |  |
| O=C(NN=Cc1nc2ccccc2s1)c1ccncc1 [Compound 5, N’-[(2-Benzothiazolyl)methylene]pyridine-4-carbohydrazide] |  |  | 61.5 ± 5.99 µM | 234 to 237 °C | 55.2 ± 4.77 µM |  | >1.8 | > 100 µM |  |  |  |
| COCc1nc(-c2ccc3c(c2)OCO3)no1 [Compound 8] |  |  | 59.9 ± 6.45 µM | 56 to 57 °C | 51.3 ± 4.35 µM |  | >1.9 | > 100 µM |  |  |  |
| COC(=O)c1c(C(=O)OC)c2ccccn2c1-c1nc2cc([N+](=O)[O-])ccc2[nH]1 [Compound 11, Dimethyl 3-(5-nitro-1H-benzo[d]imidazol-2-yl)indolizine-1,2-dicarboxylate] |  |  |  | 234 °C |  |  |  |  |  |  |  |
| CCCCCCCCCCCCCCCCOP(=O)([O-])OCC[N+](C)(C)C [miltefosine] |  |  |  |  |  |  |  |  |  |  | 0.31 µM |

The next lines start with results.

| IC50 ([2]; Table 3, 72 h incubation, read-out: Leishmania donovani LV9 Axenic Amastigotes IC50 ± SD) | IC50 [3, 7] | IC50 [2, 9] | melting point | IC50 [3, 10] | SMILES | CC50 at 48 h ([1]; Table 3, read-out: Cytotoxicity on RAW 264.7 Macrophages CC50 ± SD) | SI = CC50/IC50 Intramacro. Amas. [3] | CC50 at 48 h [1, 8] | selectivity index (SI) [4] | selectivity index (SI, CC50 for macrophage/IC50 for promastigotes) [5] | IC50 [6] |
| --- | --- | --- | --- | --- | --- | --- | --- | --- | --- | --- | --- |
|  |  | 11.9 ± 1.87 µM | 121 to 124 °C | 6.25 ± 1.89 µM | Cc1csc(C=NNC(=O)c2ccco2)n1 [Compound 1, N’-[(4-Methyl-2-thiazolyl)methylene]furan-2-carbohydrazide] |  | 2.2 | 13.9 ± 2.11 µM |  |  |  |
|  | < 5 µM | 1.09 ± 0.12 µM |  | 2.18 ± 0.01 µM | O=C(NN=Cc1ccc(Br)s1)c1cccs1 [Compound 2, N’-[(5-Bromo-2-thiophenyl)methylene]thiophene-2-carbohydrazide] |  | 2.2 | 4.87 ± 0.39 µM | 2 | ≥ 2 |  |
|  |  | 12.5 ± 0.61 µM | 231 to 234 °C | 11.2 ± 0.62 µM | O=C(NN=Cc1nc2ccccc2s1)c1cccs1 [Compound 4, N’-[(2-Benzothiazolyl)methylene]thiophene-2-carbohydrazide] |  | 1.4 | 16.3 ± 1.42 µM |  |  |  |
|  |  | 51.2 ± 4.98 µM | 182 to 184 °C | 47.2 ± 3.12 µM | NC(=NO)c1cccc([N+](=O)[O-])c1 [Compound 7, 3-Nitrobenzamidoxime] |  | >2.1 | > 100 µM |  |  |  |
|  |  | > 100 µM | 162 °C | > 100 µM | COC(=O)c1c(C(=O)OC)c2c3ccccc3ccn2c1-c1nc2cc([N+](=O)[O-])ccc2[nH]1 [Compound 12, Dimethyl 3-(5-nitro-1H-benzo[d]imidazol-2-yl)pyrrolo[2,1-a]isoquinoline-1,2-dicarboxylate] |  |  | > 100 µM |  |  |  |
|  |  |  | 280 °C |  | COC(=O)c1cc(-c2nc3cc([N+](=O)[O-])ccc3[nH]2)n2ccc3ccccc3c12 [Compound 13, Methyl 3-(5-nitro-1H-benzo[d]imidazol-2-yl)pyrrolo[2,1-a]isoquinoline-1-carboxylate] |  |  |  |  |  |  |
